Measured values as given in US11707557B2, “Compositions and devices incorporating water-insoluble therapeutic agents and methods of the use thereof” (COOK MEDICAL TECHNOLOGIES LLC, priority 2014, dated 2023).
In brackets after ≈: the same amount, converted by molar mass.

Assays:
pig bladder tissue [1] = test: Uptake of paclitaxel or docetaxel into pig bladder tissue from triblock or diblock copolymer-MEPEG pastes; type: in vitro ADME; conditions: EGCG or tannic acid loaded triblock copolymer paste, perivesicular side, 2 hours
Text: Methods: Fresh ex vivo pigs bladders were cut into 2 cm diameter pieces and laid on franz diffusions cells. […] The synthesis of the diblock copolymer is described in example X and is composed of a MEPEG molecule of 2000 molecular weight with polylactic acid at a molecular weight of 1330. The triblock copolymer was synthesized in house and has a composition of 35/35/30 (polycaprolactone, polylactic acid, polyethylene glycol with a total molecular weight of 4600. The triblock was synthesized by heating a mixture of caprolactone (Sigma chemicals) lactic acid (Polysciences) and Polyethylene glycol (Sigma molecular weight 1380) to 120° C. under nitrogen overnight followed by cooling and washing in hexane or cold ethanol. 100 mg of paste was applied to the perivascular side of the bladder tissue and 200 ul of tyrodes buffer pH 7.4 was added. The tissue was incubated for 2 hours at 37° C. and then the diffusion cell was disassembled, the tissue was washed free of remaining paste with excess tyrodes and the tissues were then frozen and cryosectioned for radioactivity counting by liquid scintillation methods.

pig skin = system: pig skin
Description: Various gallate-containing drug formulations were prepared and applied to ex vivo pig skin samples. Fresh pig skin was obtained from a local butcher, processed within three hours and then frozen. For experiments, the skin was slowly thawed, excess fat removed from the base, and cut into 1×2 cm squares. These squares were mounted and clamped on Franz diffusion cells, which kept the tissue moist and isolated and exposed a 6 mm diameter of the upper skin surface for the application of a drug loaded formulation. Skin samples were then frozen and later cryosectioned in 50 μm slices. The drug in the slices was extracted and measured by HPLC or radioactive doping methods. A drug depth profile was then established for each drug.
1. Formulations containing a drug and a gallate. The drugs were dissolved in ethanol at various concentrations along with either EGCG or TA (500 mg/mL). Each solution was pipetted into 6×5 mm diameter aluminum cups (approximately 3 mm in height) by filling and allowing the ethanol to evaporate at 50° C. until all the solution was used up (80 mg per cup).
2. Formulations containing a drug, propylene glycol (“PG”) and a gallate. 300 mg of propylene glycol was mixed with 200 mg of EGCG or TA until dissolved. Various amounts of drug were added to this mixture and dissolved. 80 mg of the resulting viscous solution was weighed into 6×5 mm aluminum cups.
3. Control Formulations. Control formulations were prepared using Glaxal base and Plogel. Glaxal base is a cream used by compounding pharmacists to manufacture topical formulations of drugs. Plogel is an alternative used for dermal formulations. […] Drug was added to a known weight of Glaxal or Plogel and levigated to produce a standard drug dispersion. These formulations were prepared the evening before the experiment. For some drugs, radioactive drug (where available) was also added as a doping additive to facilitate quantitation in tissues.
Eutectics: In some cases, gallate containing compounds and drugs were formulated in eutectic mixtures. These included a 60:40 (% w/w) mixture of menthol with ibuprofen. These agents acted as a carrier for retinoic acid, which was then dissolved in this liquid. The 3-drug eutectic/solution was then blended into the CMC/poloxamer emulsion containing EGCG (2.5%). […] The emulsion was stabilized with poloxamer.
Example 29. Pig skin studies. Aluminum cups containing drug formulations were inverted on top of the pig skin in the Franz diffusion cell so that the formulation contents were in contact with the skin. […]
Analysis. […] The amount of drug in each group of skin sections was then determined using HPLC methods, or by radioactivity counting on a liquid scintillation counter. The amount of drug in each group of skin sections was expressed as μg/g or mg/g of tissue.

[2] = Drug release from injectable PG:gallate pastes (60:40) into PBS; type: physicochemical; conditions: 60:40 PG:EGCG or PG:tannic acid, 2% w/w drug, PBS pH 7.4, 37° C.
Description: Methods: 60:40% w/w PG:EGCG or PG:tannic acid was used in these studies. 588 mg of propylene glycol was weighed into a 20 mL glass vials and 392 of EGCG or tannic acid was added followed by vortexing to distribute and dissolve the gallates. The vials were warmed to 60° C. and vortexed until all the contents were in solution. At this time 20 mg of drug was added (2% w/w) and vortexed until in solution. The following drugs were used: paclitaxel, docetaxel, retinoic acid, amphotericin B, and curcumin. 100 mg of each paste was weighed into the base of a 15 mL glass test tube and 10 mL of phosphate buffered saline was added at pH 7.4 and the tubes were incubated at 37° C. for certain times. All 10 mL of the PBS release media was removed and 1 mL analyzed by HPLC for drug content. 10 mL of fresh PBS was then added to all tubes

pig bladder tissue [3] = test: Uptake of docetaxel or paclitaxel into pig bladder tissue from EGCG or tannic acid solutions (Franz cells); type: in vitro ADME; conditions: drug 200 microg/ml in EGCG or tannic acid at 50 mg/ml, urothelial side, 2 hours
Description: Methods: Fresh ex vivo pig bladders were cut into 2 cm diameter pieces and laid on franz diffusions cells. […] The solutions were then made up in tyrodes buffer pH 7.4 and 400 ul was placed on the urothelial side of the tissue for 2 hours. The tissues were then frozen and cryosectioned for radioactivity counting by liquid scintillation methods.

pig bladder tissue [4] = test: Uptake of paclitaxel into pig bladder tissue from methoxypolyethylene glycol pastes with EGCG or tannic acid; type: in vitro ADME; conditions: MEPEG paste with EGCG or tannic acid, 5% drug, urothelial or perivascular side, 2 hours
Description: Methods: Fresh ex vivo pig bladders were cut into 2 cm diameter pieces and laid on franz diffusions cells. […] 100 mg of paste was applied to either the perivascular or urothelial side of the bladder tissue and 200 ul of tyrodes buffer pH 7.4 was added. The tissue was incubated for 2 hours at 37° C. and then the diffusion cell was disassembled, the tissue was washed free of remaining paste with excess tyrodes and the tissues were then frozen and cryosectioned for radioactivity counting by liquid scintillation methods.

mdck-mdr cells = test: Uptake of paclitaxel into drug resistant mdck-mdr cells with or without EGCG; type: cell-based, canine

Compound | penetration into the bladder tissue (pig bladder tissue [1]) | drug uptake by pig skin relative to controls (pig skin) | drug release from PG:gallate paste [2] | drug penetration through bladder tissue (pig bladder tissue [3]) | drug uptake by pig skin (pig skin) | penetration of paclitaxel into the bladder tissue (pig bladder tissue [4]) | paclitaxel level in cells (mdck-mdr cells; co-incubated with EGCG at 50 microg/ml) [pg/mg] | paclitaxel level in cells (mdck-mdr cells; paclitaxel alone) [pg/mg cellular protein] | increase in drug uptake with EGCG (mdck-mdr cells; with EGCG versus alone) [fold] | solubility (physchem; aqueous with cosolvent or surfactant or cyclodextrin, thermodynamic from solid, drug concentration solubilised at maximum EGCG concentration) [µg/mL] | solubility (physchem; aqueous with cosolvent or surfactant or cyclodextrin, thermodynamic from solid, drug concentration solubilised at maximum tannic acid concentration) [µg/mL] | solubility (physchem; water, free solubility in water) [µg/mL]
CC(=O)O[C@@]12CO[C@@H]1C[C@H](O)[C@@]1(C)C(=O)[C@H](O)C3=C(C)[C@@H](OC(=O)[C@H](O)[C@@H](NC(=O)OC(C)(C)C)c4ccccc4)C[C@@](O)([C@@H](OC(=O)c4ccccc4)[C@H]21)C3(C)C [docetaxel] | allowed for the penetration | higher levels of uptake as compared to the control formulations | relatively controlled release of the drug over 24 hours | high levels of drug penetration |  |  |  |  |  |  |  | 
CC(=O)O[C@H]1C(=O)[C@@]2(C)[C@H]([C@H](OC(=O)c3ccccc3)[C@]3(O)C[C@H](OC(=O)[C@H](O)[C@@H](NC(=O)c4ccccc4)c4ccccc4)C(C)=C1C3(C)C)[C@]1(OC(C)=O)CO[C@@H]1C[C@@H]2O [paclitaxel] | allowed for the penetration |  | relatively controlled release of the drug over 24 hours | high levels of drug penetration | low levels of drug uptake | allowed for the penetration | ≤ 2000 | < 200 | 10 | ~1000 (≈ 1170 µM) | ~4800 (≈ 5620 µM) | 1 (≈ 1.17 µM)
